Experimental data from patent publication US20020142347A1, “Biosensor” (BIOSENSOR ApS, priority 2000, published 2002).
Positions count from the first letter of the chain named. Numbers in names are those of the source. Where “and” joins values, the source holds several entries; their conditions need not be identical. Equal entries are not always repeated. Where two headings read alike, the source gives them in different places. Each block holds one molecule with its values, some of them ahead of it.

Experiments:
FACI53 [1] = biological target: T1, FACI53 (Bos taurus, UniProt P07107, A54C); test: Fluorescence emission change of FACI-53 on titration with CoA and acyl-CoA esters; type: binding, bovine; conditions: for Fluorescence emission maximum of FACI-53 with ligand: 525 nm when no ligand present, excitation 400 nm; for Relative emission of FACI-53 at 495 nm, fold increase: emission at 495 nm
T1 construct: badan (6-bromoacetyl-2-dimethylaminonaphthalene) fluorophore on the introduced Cys-53; made in house; host or cells: E. coli BL21(DE3)pLysS, pET3a vector
T1 sequence (P07107 2-87 A54C): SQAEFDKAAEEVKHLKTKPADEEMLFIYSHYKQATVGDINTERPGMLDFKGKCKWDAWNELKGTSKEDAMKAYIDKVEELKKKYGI
Experimental: (§1) Quantitative determination of binding affinities (KD) were performed by isothermal titration micro calorimetry as previously described (Faergeman et. al., 1996; Biochemistry 35, 14118-14126). Qualitative evaluation of relative binding affinities were determined by isoelectrical focusing using the Pharmacia Fast Gel system according to the prescriptions given by the manufacture. Fluorescence emission changes induced by acyl-CoA binding to badan modified protein were determined as follows: 5 μl portions of acyl-CoAs were added from stock solutions disolved in binding buffer, (10 mM Hepes, 150 mM NaCL, 1 mM NaHPO4, pH 7.4) containing 3.4 μM Badan derivatized protein to a 1 ml 3.4 μM solution of the Badan derivatized ACBP in the same buffer. The fluorescence emission was measured on a SPEX FLOUROLOG (Industries Inc, Edison N.J., USA) with excitation at 400 nm and emission scan from 400 nm to 550 nm. The concentration of acyl-CoA in the aqueous phase was determined from the fluorescence emission sensitivities at 495 and 470 nm repectively essentially by the method described by (Grynkiewickz et. al.,1985, J. Biol. Chem. 260, 3440-3450) according to which:
(§2) Fluorescence titration emission spectra from 415 nm to 550 nm (excitation at 400 nm) were performed for CoA, C4:0-, C8:0-, C12:0-, C16:0-, and C20:0-CoA with all four mutated and badan modified proteins.
Titration of FACI-53 dissolved in binding buffer with the above mentioned acyl-CoA esters produced a smooth downward shift in fluorescence emission maximum from 525 nm when no ligand was present to 508, 503, 490, 492, 496 and 514 with increasing concentrations of CoA, C4:0-, C8:0-, C12:0-, C16:0- and C20:0-CoA respectively.

FACI-24 [2] = biological target: T2, FACI-24 (Bos taurus, UniProt P07107, M25C); test: Fluorescence emission change of FACI-24 on titration with CoA and acyl-CoA esters; type: binding, bovine; conditions: for Downshift in emission maximum of FACI-24: emission maximum without ligand 510 nm, excitation 400 nm
T2 construct: made in house; host or cells: E. coli BL21(DE3)pLysS, pET3a vector
T2 sequence (P07107 2-87 M25C): T1 sequence (P07107 2-87 A54C) with M24C, C53A
Experimental: as §1, §2
The emission maximum of FACI-24 without ligand added was 510 nm and titration with CoA, C4:0-, C8:0-, C12:0-, […], C16:0- and C20:0-CoA caused 0, 16, 34, 42, 46 and 46 nm downshift in emission maximum, respectively (results not shown). C16:0-CoA induced a 5,5 fold increase in emission at 464 nm (FIG. 10).
(§3) Titration of FACI with acyl-CoAs was done using a SPEX FLOUROLOG (Industries Inc, Edison N.J., USA) with excitation at 387 nm and emission at 460 nm, with both excitation and emission slits set to 4.5 nm. FACI (0.5-4.5 uM, as indicated) was dissolved in 1.5 ml binding buffer (10 mM HEPES 150 mM NaCl, 5 mM KCl, 1 mM Na2HPO4, pH 7.4) and titrated with a 10 μM acyl-CoA dissolved in binding buffer, with or without FACI added, as indicated. Fluorescence emission values (counts per second) measured without FACI added to the ligand stock solution were corrected for titrand dilution.

FACI-24 [3] = biological target: T2, FACI-24; test: Fluorescence titration equilibrium binding analysis of CoA and acyl-CoA esters to FACI-24; design: species or system bovine
Experimental: Development of a mathematical expression describing the relationship between acyl-CoA concentration and FACI-24 fluorescence was performed essentially as by Richieri et al 1992, J Biol Chem, 267:23495-23501. However, where ligand binding to ADIFAB induces both a fluorescence intensity increase around 505 nm and a fluorescence intensity decrease around 432 nm, ligand binding to FACI-24 only causes an increase in fluorescence around 460 nm.
Derivatisation of an expression for the fluorescence value as a function of the acyl-coA concentration was done using the Scatchard equation as a starting point: [formula]
which has been used to fit the titration data.
The curves represent the best fit analysis from two independent experiment calculated and normalized as described above. The FACI-24 binding affinity increases dramatically when the acyl-chain length increases from C8 to C10 and C12, a smaller but significant drop in Kd is seen by increasing chain length from C12 to C14. C14 to C18 saturated acyl-CoA esters and C18:1-CoA binds with similar and very high affinities to FACI-24. In >0.1 M salt, FACI-24 binds acyl-CoAs with higher affinity and similar specificity as native unmodified bovine ACBP. The Kd for binding of C12-CoA and C16-CoA to native ACBP is 40 and 2.0 nM, respectively (Fulcery et al Biochemical, 1997, 325:423-428; Færgeman et al 1996, Biochemistry, 35:14118-14126). FACI-24 is highly specific for binding long-chain acyl-CoA esters.
as §3
Up to four parameters were fitted in this way, these were B, representing the point of saturation on the X axis, H, representing the maximum fluorescence, i.e. the fluorescence at saturating concentration of acyl-CoA, L, the minimum fluorescence value, i.e. the fluorescence of FACI-24 alone in buffer, and K, the Kd value lor the acyl-CoA in question. Initial estimates for the fittable parameters were typically: B=1, H=maximum fluorescence value measured, L=minimum fluorescence value measured (at acyl-CoA-concentration=0), and K as judged from the raw data, typically from 0.0001 uM to 0.1 uM for acyl-CoA longer than C10:0-CoA.
For each acyl-CoA at least two titrations and fittings were performed. To consider two or more titrations of the same acyl-CoA together and obtain a Kd value using all these titrations, both axes of the raw data were standardised using the fitted values of B, H and L in this way:
X axis standard=(raw X axis values)/Bfitted
Y axis standard=[(raw Y axis values)−Lfitted]/[Hfitted−Lfitted]
In this way all Y axis values should come to lie between 0 and 1 and the X axis value should be 1 at the point of saturation (FACI-24:acyl-CoA 1:1). Such adjusted data were pooled and fitted using DataFit. Typically, both H and B fitted to values close to 1 and L fitted to values close to 0. K was typically fitted to values somewhere between the two values obtained for the raw data.
This could be overcome by removing B from the fittable parameters list and instead setting it to a constant value of 1 and fitting again. This was typically done for both the raw and the standardised data.

native bovine ACBP = biological target: T3, native bovine ACBP (Bos taurus, UniProt P07107); conditions: literature, read-out: KD for binding to native bovine ACBP, cited from earlier work
T3 sequence (P07107 1-87): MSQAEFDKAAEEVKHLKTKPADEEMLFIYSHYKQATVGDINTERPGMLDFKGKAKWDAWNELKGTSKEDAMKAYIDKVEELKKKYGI

FACI53 [4] = biological target: T1, FACI53; test: Isoelectrical focusing of acyl-CoA binding to FACI53; design: species or system bovine; conditions: ligand in four-fold molar excess over protein
Experimental: All the gels were prepared with ligands (1-7) in four-fold molar excess over protein. […] The protein-ligand complex shifted to a pl around 3.8. Legend: 1: Water, 2: CoA-SH, 3: C4-CoA, 4: C8-CoA, 5: C12-CoA, 6: C16-CoA, 7: C20-CoA, 8: Broad pl Calibration Kit (pH 3-10).
as §1, with “The concentration of acyl-CoA in the aqueous phase was determined from the fluorescence emission sensitivities at 495 and 470 nm repectively essentially by the method described by (Grynkiewickz et. al.,1985, J. Biol. Chem. 260, 3440-3450) according to which:” left out

[5] = FACI-24 (1.5 μM) titrated with increasing CoA and acyl-CoA concentration, fitted binding curves, emission 460 nm, read-out: Kd (nM) ± S.E.

Molecule: CCCCCCCC(=O)SCCNC(=O)CCNC(=O)[C@H](O)C(C)(C)COP(=O)(O)OP(=O)(O)OC[C@H]1O[C@@H](n2cnc3c(N)ncnc32)[C@H](O)[C@@H]1OP(=O)(O)O [C8:0-CoA]
Magnitude of emission of FACI-53, fold increase (FACI53 [1]): 2.9 fold
Fluorescence emission maximum of FACI-53 with ligand (FACI53 [1]): 490 nm
Relative emission of FACI-53 at 495 nm, fold increase (FACI53 [1]): 4.8 fold
Downshift in emission maximum of FACI-24 (FACI-24 [2]): 34 nm
Kd (FACI-24 [3]; [5]): 342 ± 31.9 nM

Molecule: CCCC(=O)SCCNC(=O)CCNC(=O)[C@H](O)C(C)(C)COP(=O)(O)OP(=O)(O)OC[C@H]1O[C@@H](n2cnc3c(N)ncnc32)[C@H](O)[C@@H]1OP(=O)(O)O [C4:0-CoA]
Magnitude of emission of FACI-53, fold increase (FACI53 [1]): 1.8 fold
Fluorescence emission maximum of FACI-53 with ligand (FACI53 [1]): 503 nm
Relative emission of FACI-53 at 495 nm, fold increase (FACI53 [1]): 2.8 fold
Downshift in emission maximum of FACI-24 (FACI-24 [2]): 16 nm
Kd (FACI-24 [3]; [5]): 1500 ± 223 nM

Molecule: C18:1-CoA
Kd (FACI-24 [3]; [5]): 0.59 ± 0.19 nM

Molecule: CCCCCCCCCCCCCCCCCC(=O)SCCNC(=O)CCNC(=O)[C@H](O)C(C)(C)COP(=O)(O)OP(=O)(O)OC[C@H]1O[C@@H](n2cnc3c(N)ncnc32)[C@H](O)[C@@H]1OP(=O)(O)O [C18:0-CoA]
Kd (FACI-24 [3]; [5]): 1.65 ± 0.83 nM

B1: FACI-53: badan derivative of A53C-bovine ACBP (Fluorescent Acyl-CoA Indicator 53) (conjugate, UniProt P07107 2-87, looked up, variant A53C)
Acyl-CoA-binding protein: T1 sequence (P07107 2-87 A54C)
modifications: badan label
Emission maximum of FACI53 on titration with ligand (FACI53 [1]; FIG. 3): 487 nm
Fluorescence emission maximum of FACI-53, no ligand present (FACI53 [1]; no ligand): 525 nm

More lines, main results first:

Kd (FACI-24 [3]; [5]): 61.8 ± 2.49 nM
Molecule: CCCCCCCCCC(=O)SCCNC(=O)CCNC(=O)[C@H](O)C(C)(C)COP(=O)(O)OP(=O)(O)OC[C@H]1O[C@@H](n2cnc3c(N)ncnc32)[C@H](O)[C@@H]1OP(=O)(O)O [C10:0-CoA]

Kd (FACI-24 [3]; [5]): 1.66 ± 0.26 nM
Kd (FACI-24 [3]; titration equilibrium analysis, >0.1 M salt, read-out: KD for binding to FACI24): 1.7 nM
Molecule: CCCCCCCCCCCCCC(=O)SCCNC(=O)CCNC(=O)[C@H](O)C(C)(C)COP(=O)(O)OP(=O)(O)OC[C@H]1O[C@@H](n2cnc3c(N)ncnc32)[C@H](O)[C@@H]1OP(=O)(O)O [C14:0-CoA]
Kd (native bovine ACBP; isothermal titration microcalorimetry, >0.1 M salt): 16 nM

Magnitude of emission of FACI-53, fold increase (FACI53 [1]): 1.1 fold
Fluorescence emission maximum of FACI-53 with ligand (FACI53 [1]): 508 nm
Relative emission of FACI-53 at 495 nm, fold increase (FACI53 [1]): 1.5 fold
Fluorescence response of FACI-53 (FACI53 [1]; listed as CoA): hardly responded
Fold increase in FACI-24 fluorescence emission at 460 nm (FACI-24 [2]; emission at 460 nm): 3 fold
Downshift in emission maximum of FACI-24 (FACI-24 [2]): 0 nm
Kd (FACI-24 [3]; [5]): 2450 ± 249 nM
Kd (FACI-24 [3]; read-out: Kd for binding to FACI-24): 2500 nM and 2000 nM
Molecule: CC(C)(COP(=O)(O)OP(=O)(O)OC[C@H]1O[C@@H](n2cnc3c(N)ncnc32)[C@H](O)[C@@H]1OP(=O)(O)O)[C@@H](O)C(=O)NCCC(=O)NCCS [CoASH, Coenzyme A]
Kd (native bovine ACBP): 2000 nM
Fluorescence response of FACI-53 (FACI53 [1]; listed as free CoA): Neither FACI24 or FACI53 respond significantly
Fluorescence response of FACI-24 (FACI-24 [2]): Neither FACI24 or FACI53 respond significantly

Fluorescence response of FACI-53 (FACI53 [1]): hardly responded
Magnitude of emission of FACI-53, fold increase (FACI53 [1]): 0.8 fold
Fluorescence emission maximum of FACI-53 with ligand (FACI53 [1]): 514 nm
Relative emission of FACI-53 at 495 nm, fold increase (FACI53 [1]): 0.8 fold
Downshift in emission maximum of FACI-24 (FACI-24 [2]): 46 nm
Binding to FACI53 by isoelectrical focusing (FACI53 [4]): shown to bind
Molecule: CCCCCCCCCCCCCCCCCCCC(=O)SCCNC(=O)CCNC(=O)[C@H](O)C(C)(C)COP(=O)(O)OP(=O)(O)OC[C@H]1O[C@@H](n2cnc3c(N)ncnc32)[C@H](O)[C@@H]1OP(=O)(O)O [C20:0-CoA]

Emission maximum of FACI24 on titration with ligand (FACI-24 [2]; FIG. 2): 465 nm
Emission maximum of FACI-24 without ligand added (FACI-24 [2]; no ligand): 510 nm
B2: FACI-24: badan derivative of M24C-bovine ACBP (Fluorescent modified Acyl-CoA Indicator 24) (conjugate, UniProt P07107 2-87, looked up, variant M24C)
Acyl-CoA-binding protein: T1 sequence (P07107 2-87 A54C) with M24C, C53A
modifications: badan label
